Reference: patent US20090253634A1, “Methods and Compositions for the Treatment of Gastrointestinal Disorders” (MICROBIA, INC., priority 2005, published 2009)
Bridge positions count the residues as written; N and C are the ends. Peptide text beside a SMILES is read from it.

Key:
[1] = system: visceromotor response to colorectal distension; experiment: water avoidance stress-induced hyperalgesia model and basal visceral nociception; assay type: in vivo, Wistar rats
Procedure: The effect of SEQ ID NO:3 on basal visceral nociception in a model of water avoidance stress-induced visceral hyperalgesia in adult male Wistar rats was tested. The stress involved confining rats to a platform surrounded by water for a period of 1 hour and then measuring their visceromotor response to colonic distension using electromyography (EMG).
Electrode leads were then tunneled subcutaneously and externalized laterally for future access. Following surgery, rats were housed in pairs and allowed to recover for at least 7 days. On the day of the experiment, animals were lightly anesthetized with halothane, and a lubricated latex balloon (6 cm) was inserted intra-anally into the descending colon. Animals were allowed to recover for 30 minutes, and colorectal distension (CRD) was initiated. The CRD procedure consisted of graded intensities of phasic CRD (10, 20, 40, 60 mmHg; 20 s duration; 4 min inter-stimulus interval). Visceromotor response (VMR) to CRD was quantified by measuring EMG activity. […] Animals were allowed 1 hour recovery and then SEQ ID NO:3 or vehicle was orally administered. At 1 hour following administration of SEQ ID NO:3 or vehicle CRD was repeated. […] The mean value (+/−SEM) of in vehicle and SEQ ID NO:3 treated groups (n=7 for each group) is graphically depicted in FIG. 7e.
To determine the effect of SEQ ID NO:3 in a model of water avoidance stress-induced visceral hyperalgesia, a baseline CRD was recorded and then the animals were subjected to 1 hour of water avoidance stress. For water avoidance stress, the test apparatus consisted of a Plexiglas tank with a block affixed to the center of the floor. The tank was filled with fresh room temperature water (25° C.) to within 1 cm of the top of the block. The animals were placed on the block for a period of 1 h. The sham water avoidance stress consisted in placing the rats on the same platform in a waterless container. A second CRD was performed at 24 hours post water avoidance stress. Following the second CRD, animals were allowed 1 hour recovery and then SEQ ID NO:3 or vehicle was orally administered. […]

guanylate cyclase C = target: T1, guanylate cyclase C (Mus musculus, UniProt Q3UWA6); experiment: competition binding assay on intestinal epithelial cells of wild-type and GC-C KO mice; settings: GC-C KO mice compared to wild-type mice; 125I-SEQ ID NO:3
T1 construct: isolated intestinal epithelial cells from two female wild-type and two female GC-C KO mice; from tissue; host or cells: mouse intestinal epithelial cells (homogenised), wild-type; GC-C KO mice as control
T1 sequence (Q3UWA6 20-1072): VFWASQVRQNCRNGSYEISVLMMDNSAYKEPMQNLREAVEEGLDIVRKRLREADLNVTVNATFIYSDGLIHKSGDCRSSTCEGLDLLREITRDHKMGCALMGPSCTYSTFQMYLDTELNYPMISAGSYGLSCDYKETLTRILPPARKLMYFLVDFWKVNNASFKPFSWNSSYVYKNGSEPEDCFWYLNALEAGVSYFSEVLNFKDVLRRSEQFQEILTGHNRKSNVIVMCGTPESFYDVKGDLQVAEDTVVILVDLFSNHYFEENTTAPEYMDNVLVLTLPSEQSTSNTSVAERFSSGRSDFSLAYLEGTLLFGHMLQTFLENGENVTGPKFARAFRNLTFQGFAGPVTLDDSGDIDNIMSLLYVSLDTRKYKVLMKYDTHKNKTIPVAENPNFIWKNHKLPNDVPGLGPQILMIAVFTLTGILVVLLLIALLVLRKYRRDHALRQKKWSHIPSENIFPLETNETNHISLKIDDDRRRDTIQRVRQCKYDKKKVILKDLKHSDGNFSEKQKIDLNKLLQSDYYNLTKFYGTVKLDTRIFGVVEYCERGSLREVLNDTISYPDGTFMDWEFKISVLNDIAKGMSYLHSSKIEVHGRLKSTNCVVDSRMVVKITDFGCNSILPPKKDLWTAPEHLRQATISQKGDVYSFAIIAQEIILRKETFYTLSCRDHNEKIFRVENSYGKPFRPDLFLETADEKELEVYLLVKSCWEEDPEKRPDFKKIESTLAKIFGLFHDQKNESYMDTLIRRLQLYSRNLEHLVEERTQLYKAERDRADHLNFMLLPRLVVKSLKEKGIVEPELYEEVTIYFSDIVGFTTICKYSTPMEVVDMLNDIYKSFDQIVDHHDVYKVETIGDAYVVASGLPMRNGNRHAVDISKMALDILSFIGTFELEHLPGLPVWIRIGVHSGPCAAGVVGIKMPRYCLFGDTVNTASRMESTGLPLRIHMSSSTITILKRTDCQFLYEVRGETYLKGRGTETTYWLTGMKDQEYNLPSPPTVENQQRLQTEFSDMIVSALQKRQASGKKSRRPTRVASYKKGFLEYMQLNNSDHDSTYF
Procedure: Mouse intestinal epithelial cells were prepared identical to that above as for rat intestinal epithelial cells except the cells were homogenized with an Omni homogenizer for 20 seconds on the maximum setting to make a suspension of cells. A competition binding assay was performed identical to that described above between ^125I labeled SEQ ID NO:3 and unlabeled SEQ ID NO:3 (competitor).

C[C@@H]1NC(=O)[C@@H]2CCCN2C(=O)[C@H](CC(N)=O)NC(=O)[C@@H]2CSSC[C@H](N)C(=O)N[C@H]3CSSC[C@H](NC1=O)C(=O)N[C@@H]([C@@H](C)O)C(=O)NCC(=O)N[C@H](C(=O)N[C@@H](Cc1ccc(O)cc1)C(=O)O)CSSC[C@H](NC(=O)[C@H](Cc1ccc(O)cc1)NC(=O)[C@H](CCC(=O)O)NC3=O)C(=O)N2 [SEQ ID NO:3] (H-CCEYCCNPACTGCY-OH; disulfide 1-6, 2-10, 5-13; N-terminus and C-terminus assumed)
basal visceral nociception ([1]; oral 3 μg/kg): had no effects
visceromotor response to CRD 24 hours after water avoidance stress ([1]; oral 3 μg/kg): exhibited anti-hyperalgesic properties
basal visceral nociception versus vehicle ([1]; oral 30 μg/kg): increased basal visceral nociception
binding to intestinal epithelial cells (guanylate cyclase C): reduction in SEQ ID NO:3 binding
